The nature of data set [1]: Water solubility of peptides. In kind it is physicochemical. Conditions: from solid: 10 mg lyophilized peptide in 1.0 mL water, sonicated 30 min at room temperature, centrifuged 5 min 13,000 rpm; UV at 301 nm (ε 7800 M^−1 cm^−1). The method, then: Peptide solutions were prepared by dissolving 10 mg of each lyophilized peptide in 1.0 mL of water. These suspensions were sonicated for 30 min at room temperature; after centrifugation (5 min at 13,000 rpm), the concentration was spectroscopically determined on UV–Vis Thermo Fisher Scientific Inc. (Wilmington, DE, USA) NanoDrop 2000 c spectrophotometer equipped with a 1.0 cm quartz cuvette (Hellma). The quantification of the concentration was assessed using the molar absorptivity (ε) of 7800 M^−1 cm^−1 for Fmoc group at λ = 301 nm.
Due to their different sequence, each peptide has a different water solubility (see Table 2). […] The capability of peptides to self-assemble was initially checked by fluorescence spectroscopy, recording the emission spectra at the maximum concentration of the peptide. Peptides containing the FF motif were excited at both 257 and 301 nm, which corresponded to the excitation wavelength of phenyl and the Fmoc group, respectively, whereas peptides lacking FF were excited only at 301 nm. All the peptide derivatives, upon excitation at 301 nm, have an emission peak at 328 nm, red-shifted of 15 nm, with respect to the peak at 313 nm, which is expected for the monomeric form (see Figure S6).

A short description of data set [2]: In vitro hydrogel degradation in Ringer's solution. It is filed as physicochemical. The conditions noted are these: hydrogel with 1.5 mL Ringer’s solution at 37 °C for 20 days (method: 40 days); ΔW = (Wo − Wt)/Wo. The method, then: In vitro hydrogel degradation assay was performed by adding a fixed amount (1.5 mL) of Ringer’s solution (12.9 mg of NaCl, 0.45 mg of KCl and 0.48 mg of CaCl2) to the preformed hydrogels and by placing them in an oven at 37 °C for 40 days. Hydrogels were weighed before the addition of the Ringer’s solution (Wo) and after its removal (Wt). The weight loss ratio (ΔW) was calculated as percentage according to Equation (2) ΔW = ((Wo − Wt))/Wo %(2)
As potential tissue engineering matrices, PHG materials would be directly exposed to biological fluids. According to this consideration, the degradation test was performed to evaluate the matrices stability in an in vivo mimetic environment. The biological setting was mimed, incubating the hydrogels with Ringer’s solution at 37 °C for 20 days. The stability, reported as ΔW, calculated using Equation (2), was estimated as weight loss. ΔW values determined for Fmoc-K1, Fmoc-K2, and Fmoc-K3 were 43.2, 39.7, and 41.8%, respectively. In comparison to other FmocFF peptide-based hydrogels, all tested samples undergo faster and more remarkable degradation. This behavior is probably ascribable to the less rigid nature of Fmoc-K HGs. As an alternative, it can also be hypothesized that the large amount of salt in the Ringer’s solution could improve the solubility of K peptides and, in turn, accelerate the loss of 3D-organization of the matrix. It is worth it to note that an efficient in vivo degradation by biological fluids of hydrogels in their single components could allow achieving a rapid excretion of the matrix, which means a high biocompatibility.

Data set [3] concerns 3T3-L1 cells. In kind it is cell-based, mouse. Conditions: for Cell adhesion (% of adherent viable cells on seeded cells): 16 h; for cell viability of adherent cells: 72 h. As for the experimental part: (§1) Aneuploid immortal keratinocyte cell line HaCat and mouse pre-adipocyte cell line 3T3-L1 were obtained from IRCCS-SDN Biobank (10.5334/ojb.26) and grown in Dulbecco’s Modified Medium (DMEM) supplemented with 10% fetal bovine serum (FBS) and 1% GlutaMAX. Cells were incubated at 37 °C and 5% CO2 and seeded in 100 mm culture dishes.
For the adhesion test, 3T3-L1 cells were seeded in 96-well plates at a density of 0.5 ×10^4 cells per well. Before seeding, each well was filled with the indicated hydrogels; 16 h after seeding, cells were stained with Acridine Orange/Propidium Iodide stain. Cell adhesion was reported as % of adherent viable cell (fluorescing green) on total plated cells. Viability upon adhesion was reported as % viable cells and total adherent cells. Duplication rate was reported as the ratio between viable cells upon 48 h from seeding and the number of viable adherent cells upon 16 h from seeding. In order to test the toxicity of hydrogels conditioned media, we used MTS assay, (CellTiter 96® AQueous One Solution Cell Proliferation Assay, Promega, Italy). For MTS assays, HaCat and 3T3-L1 cells were seeded in 96-well plates at a density of 0.7 × 10^4 cells per well. To obtain the conditioned media, hydrogels formed in a hollow plastic chamber sealed at one end with a porous membrane, were incubated with 2 mL of completed DMEM medium for 16 h in sterile condition at RT [23]. No color change of the media was detected following the incubation and the tested pH value (7.5–7.8) was suitable for culturing added to the wells. The conditioned media were used to grow the cells for 24, 48, and 72 h. At the end of the treatment, cell viability was assessed by the MTS assay. In brief, MTS was added to the cells at a final concentration of 0.5 mg/mL. After 30 min of incubation at 37 °C, the samples were analyzed using the VICTOR Nivo (Perkin Elmer, Buckinghamshire, UK) at 490 nm absorbance. Cell survival was expressed as percentage of viable cells in the presence of hydrogels, compared to control cells grown in their absence. MTS assay was repeated twice with similar results.
To test the ability of the three hydrogels to support in vitro growth of eukaryotic cells, we culture 3T3-L1 (mouse fibroblast) cells on Fmoc-K1, K2, and K3. As first, we measured the number of cells able to adhere to hydrogels. An efficient cell adhesion is necessary for an optimal growth of the culture, and growth-supports un-favoring cell adhesion cause cell cycle arrest and induce apoptosis. […] Compared to cells plated in the absence of hydrogels, Fmoc-K1 and Fmoc-K2 disfavored cell adhesion, allowing cell attachment to 20 ± 3%, 36 ± 8% of the seeded cells, respectively.

The test system of data set [4] is 3T3-L1 cells. It is filed as cell-based, mouse. The conditions noted are these: 24 h. As for the experimental part:
as §1
For the adhesion test, 3T3-L1 cells were seeded in 96-well plates at a density of 0.5 ×10^4 cells per well. Before seeding, each well was filled with the indicated hydrogels; 16 h after seeding, cells were stained with Acridine Orange/Propidium Iodide stain. Cell adhesion was reported as % of adherent viable cell (fluorescing green) on total plated cells. Viability upon adhesion was reported as % viable cells and total adherent cells. […] No color change of the media was detected following the incubation and the tested pH value (7.5–7.8) was suitable for culturing added to the wells. […] At the end of the treatment, cell viability was assessed by the MTS assay. […] After 30 min of incubation at 37 °C, the samples were analyzed using the VICTOR Nivo (Perkin Elmer, Buckinghamshire, UK) at 490 nm absorbance. Cell survival was expressed as percentage of viable cells in the presence of hydrogels, compared to control cells grown in their absence. […]

For data set [5] the following is noted: cited from earlier work. The source says:
Hydrogels are matrices able to absorb water and swell in the media without dissolving. The calculated degree of swelling (q) was 55.2%, 56.6%, and 54.3% for Fmoc-K1, Fmoc-K2, and Fmoc-K3, respectively.

In brackets after ≈: the same amount, converted by molar mass. Residues, ends and D or L forms follow the SMILES beside them. *: point of attachment. Fmoc = O=C(OCC1c2ccccc2-c2ccccc21)*

Usually thermodynamic solubility stands for the concentration in solution at equilibrium with solid. In the case of `CC[C@H](C)[C@H](NC(=O)OCC1c2ccccc2-c2ccccc21)C(=O)N[C@@H](CC(C)C)C(=O)N[C@H](C(=O)N[C@@H](C)C(=O)NCC(=O)N[C@@H](CCCCN)C(N)=O)C(C)C` [Fmoc-K1] (Fmoc-ILVAGK-NH2), in data set [1], the thermodynamic solubility at 30 min worked out at 1240 µg/mL (≈ 1510 µM). For the same compound, the “weight loss ratio ΔW (stability)” value in data set [2] worked out at 43.2%. For the same compound, in the data set with 3T3-L1 cells [3], the “cell death of the attached cells” value was determined as 9 ± 3%, the “Cell adhesion (% of adherent viable cells on seeded cells)” value is 20 ± 3% and the “cell viability of adherent cells” value amounted to 92 ± 3%. Moreover, in the data set with 3T3-L1 cells [4], the “viability (cell survival vs control)” value is reported as “above 70%”.
Turning to `CC[C@H](C)[C@H](NC(=O)[C@H](CC(C)C)NC(=O)OCC1c2ccccc2-c2ccccc21)C(=O)N[C@H](C(=O)N[C@@H](C)C(=O)NCC(=O)N[C@@H](CCCCN)C(N)=O)C(C)C` [Fmoc-K2] (Fmoc-LIVAGK-NH2), the thermodynamic solubility at 30 min in data set [1] worked out at 2560 µg/mL (≈ 3120 µM). In addition, the “weight loss ratio ΔW (stability)” value in data set [2] came to 39.7%. For the same compound, in the data set on 3T3-L1 cells [3], the “cell death of the attached cells” value stood at 11 ± 2%, the “Cell adhesion (% of adherent viable cells on seeded cells)” value was 36 ± 8% and the “cell viability of adherent cells” value is listed as 95 ± 3%.
For `CC[C@H](C)[C@H](NC(=O)[C@H](C)NC(=O)OCC1c2ccccc2-c2ccccc21)C(=O)N[C@H](C(=O)N[C@@H](C)C(=O)NCC(=O)N[C@@H](CCCCN)C(N)=O)C(C)C` [Fmoc-K3] (Fmoc-AIVAGK-NH2) the same measures were 3210 µg/mL (≈ 4120 µM), 41.8%, 3 ± 1%, 85 ± 12% and 94 ± 3%.
In data set [1], `CC[C@H](C)[C@H](NC(=O)[C@H](Cc1ccccc1)NC(=O)[C@H](Cc1ccccc1)NC(=O)OCC1c2ccccc2-c2ccccc21)C(=O)N[C@@H](CC(C)C)C(=O)N[C@H](C(=O)N[C@@H](C)C(=O)NCC(=O)N[C@@H](CCCCN)C(N)=O)C(C)C` [FmocFF-K1] (Fmoc-FFILVAGK-NH2) had a thermodynamic solubility at 30 min of 508 µg/mL (≈ 455 µM).
In data set [1], `CC[C@H](C)[C@H](NC(=O)[C@H](CC(C)C)NC(=O)[C@H](Cc1ccccc1)NC(=O)[C@H](Cc1ccccc1)NC(=O)OCC1c2ccccc2-c2ccccc21)C(=O)N[C@H](C(=O)N[C@@H](C)C(=O)NCC(=O)N[C@@H](CCCCN)C(N)=O)C(C)C` [FmocFF-K2] (Fmoc-FFLIVAGK-NH2) yielded a thermodynamic solubility at 30 min of 253 µg/mL (≈ 227 µM).
`CC[C@H](C)[C@H](NC(=O)[C@H](C)NC(=O)[C@H](Cc1ccccc1)NC(=O)[C@H](Cc1ccccc1)NC(=O)OCC1c2ccccc2-c2ccccc21)C(=O)N[C@H](C(=O)N[C@@H](C)C(=O)NCC(=O)N[C@@H](CCCCN)C(N)=O)C(C)C` [FmocFF-K3] (Fmoc-FFAIVAGK-NH2): in data set [1], the thermodynamic solubility at 30 min was 345 µg/mL (≈ 321 µM).
As for Fmoc-diphenylalanine [FmocFF], in data set [5], the swelling degree result was “around 40%”.

Values taken from publication PMC8232644, “Self-Supporting Hydrogels Based on Fmoc-Derivatized Cationic Hexapeptides for Potential Biomedical Applications” (Biomedicines, 2021).
